Measurements: patent US12324832B2, “Application of heptoglycan-chain-containing oligosaccharide compounds in preparation of vaccine against Helicobacter pylori” (Jiangnan University, priority 2020, dated 2025)
Entries after “also recorded” stand apart in the source; their conditions may differ.

Test system: serum antibodies generated against the Helicobacter pylori serotype O:6 purified polysaccharide
Assay: Oligosaccharide chip: binding of antiserum antibodies to spotted synthetic oligosaccharides
Parameters: species or system rabbit
Details: spotting concentration 1 mM; for fluorescence intensity on oligosaccharide chip: FIG. 6A/6B, serum diluted 1:50; for recognition and binding by antibodies in the antiserum: oligosaccharide fixed on chip via amino linker, antiserum against H. pylori serotype O6 LPS, anti-rabbit IgG FITC-labeled secondary antibody
Description: FIG. 6A: Detection of the antibody binding activity of the synthetic oligosaccharides in the oligosaccharide chip using an anti-rabbit IgG FITC-labeled secondary antibody. The chip spotting mode is shown as follows: • 1: trisaccharide 1, spotting concentration is 1 mM; • 2: tetrasaccharide 2, spotting concentration is 1 mM; • 3: heptoglycan-chain-containing pentasaccharide 3, spotting concentration is 1 mM; • 4: heptoglycan-chain-containing pentasaccharide 4, spotting concentration is 1 mM; • 5: […] containing only Lewis O-antigen, spotting concentration is 1 mM; • 6: heptoglycan-chain-containing octasaccharide 6, spotting concentration is 1 mM; • 7: tridecasaccharide 7 containing Lewis O-antigen, spotting concentration is 1 mM; and • 8: Helicobacter pylori serotype O6 lipopolysaccharide, spotting concentration is 1 mg/mL.
FIG. 6B: quantitative measurements of average fluorescence intensity of spots 1-7 in FIG. 6A. Error bars are standard deviations of 4 different points from two different detection areas.
A chemically synthesized oligosaccharide antigen was fixed onto the chip surface through an amino linker, and the antiserum was incubated with the oligosaccharide chip and then incubated with the secondary antibody.
Under a chip scanner, the fluorescence of the binding of the oligosaccharide fragment and the antibody can be obtained. In this way, the binding strength of the oligosaccharide fragment to the antibody in the serum can be quantified, the amount of the chemically synthesized oligosaccharide and antiserum can be saved, and the result can be reflected clearly.
The experimental procedure is as follows: • (1) Activated amino slides were spotted with a biochip spotter. After the completion of the spotting, incubation was carried out overnight at a temperature of 26° C. and a humidity of 55%. • (2) Then the slides were immersed in a solution B (50 nM Na2HPO4, 100 nM ethanolamine in water) at 50° C. for 1 hour. The slides were washed with ultrapure water 3 times, and the residual water was removed by centrifugation. • (3) 3% BSA (w/v) in PBS was used for blocking at 4° C. overnight. The slides were washed with PBST (PBS containing 0.1% tween) once, washed with PBS twice, and centrifugally dried. • (4) The slides were placed into a 16-well incubator (ProPlate). 120 μL of mouse serum sample diluted 1:50 in 1% BSA (w/v) in PBS was added to each well, and incubated in a 37° C. wet box in the dark for 1 hour. The sample was removed, and the incubator was washed with 150 μL of PBST 3 times. • (5) A secondary antibody diluted 1:400 in 1% BSA (w/v) in PBS was added, and incubated in a wet box at 37° C. in the dark for 45 minutes. The secondary antibody solution was removed, and the incubator was washed with 150 μL of PBST 3 times. The 16-well incubator was removed, washed with ultrapure water, and washed with ultrapure water for 15 minutes. The residual water was removed by centrifugation. Scanning was carried out using the chip scanner. Immunogenicity Detection of Helicobacter pylori Serotype O:6 Synthetic Oligosaccharide Fragment:
NHS slides (SurModics, DN01-0025) were spotted with synthetic oligosaccharide compounds 1 to 7 using a biochip spotter (Jiangsu RayMe Biotechnology Co., Ltd.). After the completion of the spotting, incubation was carried out overnight at a temperature of 26° C. and a humidity of 55%. Then the slides were immersed in a solution B (50 nM Na2HPO4, 100 nM ethanolamine in water) at 50° C. for 1 hour. The slides were washed with ultrapure water 3 times, and the residual water was removed by centrifugation. 3% BSA (w/v) in PBS was used for blocking at 4° C. overnight. The slides were washed with PBST (PBS containing 0.1% tween) once, washed with PBS twice, and centrifugally dried. The slides were placed into a 16-well incubator (ProPlate). 120 μL of mouse serum sample diluted 1:50 in 1% BSA (w/v) in PBS was added to each well, and incubated in a 37° C. wet box in the dark for 1 hour. […]

| Compound | fluorescence intensity on oligosaccharide chip | recognition and binding by antibodies in the antiserum |
| --- | --- | --- |
| NCCCO[C@H]1OC([C@H](O)CO)[C@@H](O)[C@H](O)C1O[C@H]1OC([C@H](O)CO)[C@@H](O)[C@H](O)C1O[C@H]1OC([C@@H](CO)O[C@H]2OC([C@H](O)CO)[C@@H](O)[C@H](O[C@H]3OC([C@H](O)CO)[C@@H](O)C(O)C3O)C2O)[C@@H](O)[C@H](O)C1O (stereo partly drawn) [Compound 3] | higher fluorescence intensity | well recognized; also recorded: obvious and strong recognition and binding |
| NCCCO[C@H]1OC([C@H](O)CO)[C@@H](O)[C@H](O[C@H]2O[C@@H]([C@H](O)CO)[C@@H](O)C(O[C@H]3OC([C@H](O)CO)[C@@H](O)[C@H](O[C@H]4O[C@@H]([C@H](O)CO)[C@@H](O)C(O[C@H]5OC([C@H](O)CO)[C@@H](O)[C@H](O)C5O)C4O)C3O)C2O)C1O (stereo partly drawn) [Compound 4] | higher fluorescence intensity | well recognized; also recorded: obvious and strong recognition and binding |
| NCCCO[C@H]1OC([C@H](O)CO)[C@@H](O)[C@H](O)C1O[C@H]1OC([C@H](O)CO)[C@@H](O)[C@H](O)C1O[C@H]1OC([C@@H](CO)O[C@H]2OC([C@H](O)CO)[C@@H](O)[C@H](O[C@H]3O[C@@H]([C@H](O)CO)[C@@H](O)C(O[C@H]4OC([C@H](O)CO)[C@@H](O)[C@H](O[C@H]5O[C@@H]([C@H](O)CO)[C@@H](O)C(O[C@H]6OC([C@H](O)CO)[C@@H](O)[C@H](O)C6O)C5O)C4O)C3O)C2O)[C@@H](O)[C@H](O)C1O (stereo partly drawn) [Compound 6] | higher fluorescence intensity | well recognized; also recorded: obvious and strong recognition and binding |
